Source: patent US11491165B2 (Kinoxis Therapeutics Pty Ltd, priority 2016, dated 2022)

How the values were obtained:
[1] = target: T1, vasopressin 1a receptor (V1aR) (Homo sapiens, UniProt P37288); assay: Competition radioligand binding, [3H]-vasopressin, V1aR-expressing HEK293 membranes; settings: [3H]-vasopressin 2 nM, 90 min 4 °C
T1 construct: expressed in transfected cells
Description: (§1) Human embryonic kidney cells (HEK-293) transfected to stably express untagged hOTR and V1aR using the Flp-In™ T-REx™ system (Life Technologies, Carlsbad, Calif. USA) were established as reported in Jorgensen et al., 2016 (the entire disclosure of which is hereby incorporated by reference). Cells were subsequently maintained in 10% DMEM containing hygromycin (80 μg/ml), penicillin (100 U/ml), streptomycin (0.1 mg/ml) and blasticidine S hydrochloride (15 μg/ml).
(§2) To induce receptor expression, cells were incubated with tetracycline (2 μg/mL) for 48 h. PBS with 5 mM EDTA (pH 7.4) was used to detach OTR and V1aR-expressing HEK293 cells from culture flasks. Harvested cells were centrifuged at 1200 g for 5 min and were resuspended in homogenization buffer (50 mM HEPES, 5 mM EDTA, 5 mM MgCl2; pH 7.4) prior to homogenization using an Ultra-Turrax homogeniser (IKA, Wilmington, N.C., USA). Homogenates were centrifuged three times for 30 min at 48.000 g, 4° C. for 30 min and membrane pellets resuspended in 50 mM Tris HCl, 5 mM MgCl2 (pH 7.4). A bicinchoninic acid assay was used according to the manufacturer's protocol (Bio-Rad, Hercules. Calif., USA) to measure final protein concentration. Membranes were stored at −80° C. until use in competition radioligand binding studies.
(§3) Reactions were incubated for 90 min at 4° C. to reach equilibrium, and terminated by rapid filtration over glass fibre filters (Whatman GF/A […]; Millipore, Darmstadt, Germany), and washing with ice-cold reaction buffer. Filters were dried, then incubated with Microscint 0 (Perkin Elmer) for 30 min before radioactivity was detected with a Microbeta2 2450 microplate-reader (Perkin Elmer). […] Specific binding in the presence of compounds was expressed as a percentage of specific binding in the presence of vehicle control. A sum-of-squares F-test was used to compare the goodness of fit of one-site, two-site and sigmoidal with variable hill slope binding models, and to calculate Ki's using Graphpad Prism (Graphpad Software, La Jolla, Calif., USA).

BALB/c mice = assay: Murine social interaction test; format: in vivo, Mus musculus; settings: male BALB/c mice, i.p., 10 min test 30 min after injection
Description: Example Testing Effect of WJ0679 on Murine Social Interaction (N=46)
Age: 6-7 weeks at testing
Vehicle: 88% isotonic saline, 10% DMSO, 2% tween 80
Route of administration: intraperitoneal (i.p.) injection
Mice were placed in the arena (40×40×40 cm) in weight and treatment matched pairs of unfamiliar mice for a 10 min test session, commencing 30 min after receiving their i.p. injection. The variables of interest were the time the mice spent in close physical contact with each other and the time each mouse spent engaged in active social investigation (sniffing the other mouse).

[2] = target: T2, oxytocin receptor (OXTR), hOTR (Homo sapiens, UniProt P30559); assay: Competition radioligand binding, [3H]-oxytocin, OTR-expressing HEK293 membranes; settings: [3H]-oxytocin 10 nM, 90 min 4 °C
T2 construct: expressed in transfected cells
T2 sequence (P30559 1-389): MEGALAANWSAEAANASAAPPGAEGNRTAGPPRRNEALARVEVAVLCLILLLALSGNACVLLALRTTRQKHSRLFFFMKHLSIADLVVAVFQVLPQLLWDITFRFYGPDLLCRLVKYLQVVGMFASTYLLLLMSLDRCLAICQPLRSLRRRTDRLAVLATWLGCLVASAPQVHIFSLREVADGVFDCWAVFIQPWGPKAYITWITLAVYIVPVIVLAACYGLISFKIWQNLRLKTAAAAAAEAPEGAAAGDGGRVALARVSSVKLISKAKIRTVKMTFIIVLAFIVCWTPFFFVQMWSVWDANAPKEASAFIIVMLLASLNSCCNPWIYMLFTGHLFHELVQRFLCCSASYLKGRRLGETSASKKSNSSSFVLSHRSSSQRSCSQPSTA
Description: as §1, §2, §3

[3] = target: T2, oxytocin receptor (OXTR), hOTR; assay: IP1 accumulation assay, OTR-expressing HEK-293 cells (agonist and antagonist assessment); format: cell-based; settings: for Emax: HEK293, read-out: OXTR Emax (% OXT); for EC50 (OXTR agonist potency, mean ± s.d.) / EC50: agonist assessment; for EC50 (OXTR agonist potency, mean ± s.d.) / IC50: IP1; for EC50: IP1, 1 h; for OV function: ratio of OXTR functional potency to V1aR functional potency, 'OT only' = function at OXTR only; for IC50: antagonist assessment vs OT 30 nM (~EC70)
Summary of the method: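 Flp-In T-REx HEK-293 cells stably expressing untagged hOTR were induced with tetracycline for 48 h, then exposed 1 h to compound (1 nM-100 μM) alone (agonist mode) or with 30 nM OT (~EC70; antagonist mode). IP1 was measured by HTRF, expressed as % of OT-plus-vehicle and fitted to a 4-parameter logistic curve; n≥3 experiments in duplicate.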

[4] = target: T1, vasopressin 1a receptor (V1aR); assay: IP1 accumulation assay, V1aR-expressing HEK-293 cells (agonist and antagonist assessment); format: cell-based; settings: for EC50: agonist assessment, IP1, 1 h; for IC50: antagonist assessment vs AVP 25 nM (~EC70), IP1
Description: Cells were subsequently maintained in 10% DMEM containing hygromycin (80 μg/ml), penicillin (100 U/ml), streptomycin (0.1 mg/ml) and blasticidine S hydrochloride (15 μg/ml).
Cells were incubated in tetracycline (2 μg/mL) for 48 h to induce receptor expression. Intracellular IP1 levels induced by activation of the Gq protein coupled to the OTR and V1aR was indexed using the HTRF IP-One kit (CisBio International, Bedford, Mass., USA), according to manufacturer's protocol. For agonist assessment, cells were incubated with logarithmically-spaced concentrations of compounds (1 nM-100 μM) for 1 h prior to the addition of Ab-Cryptate and IP1-d2 for 1 h. The contents of each well were transferred to a white-walled proxy plate (Perkin Elmer) and fluorescence read using a Pherastar Microplate reader (BMG Labtech, Cary, N.C., USA). […] IP1 levels in the presence of compounds and OT or AVP were expressed as a percentage of levels seen with OT or AVP in the presence of vehicle control. Concentration response curves for OT and AVP were determined after 5 min incubation in drug or vehicle, and the data fitted using GraphPad PRISM to a 4-parameter logistic equation of the form y=Min+(Max−Min)/(1+10^((logEC50−X)*n)) where X is drug concentration and n is the H-ill slope. Data represent the mean±s.d. of at least 3 independent experiments, each in duplicate.

T1 sequence (P37288 whole entry): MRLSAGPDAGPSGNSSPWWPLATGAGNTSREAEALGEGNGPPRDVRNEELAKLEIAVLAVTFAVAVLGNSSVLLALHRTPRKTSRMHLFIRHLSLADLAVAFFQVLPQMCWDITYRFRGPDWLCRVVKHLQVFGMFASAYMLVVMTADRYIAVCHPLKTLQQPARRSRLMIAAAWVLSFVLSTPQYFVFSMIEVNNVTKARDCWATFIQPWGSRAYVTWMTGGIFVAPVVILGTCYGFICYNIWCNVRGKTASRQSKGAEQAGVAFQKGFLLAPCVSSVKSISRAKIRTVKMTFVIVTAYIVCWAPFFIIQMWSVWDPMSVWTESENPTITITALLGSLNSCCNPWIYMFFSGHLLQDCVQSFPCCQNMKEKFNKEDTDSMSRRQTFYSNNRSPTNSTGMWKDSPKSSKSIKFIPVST

| Structure (SMILES) | Ki [1] | time spent in close physical contact (huddling time) (BALB/c mice; all doses (1, 5, 20 mg/kg), most pronounced at 1 and 5 mg/kg, FIG. 1) | active social investigation time (BALB/c mice; doses of 1 and 20 mg/kg, FIG. 2) | Ki [2] | Emax [3] | EC50 (OXTR agonist potency, mean ± s.d.) [3] | EC50 [3] | OV function [3] | melting point | EC50 [4] | IC50 [4] | IC50 [3] |
| --- | --- | --- | --- | --- | --- | --- | --- | --- | --- | --- | --- | --- |
| Cn1ncc2c1Nc1ccccc1N(C(=O)c1cccc(F)c1)C2 [WJ0679, (3-Fluorophenyl)(1-methyl-4,10-dihydrobenzo[b]pyrazolo[3,4-e][1,4]diazepin-5 (1H)-yl)methanone] | 105 ± 10.5 nM | significantly increased | significantly increased | 422 ± 129 nM | 12.6% | 316 ± 108 nM | 406 ± 74 nM | 0.18 | 286 to 288 °C (dec.) | > 10000 nM | 2200 ± 511 nM |  |
| Cc1ccc2c(c1)N(C(=O)c1ccccc1)Cc1cnn(C)c1N2 [WJ07117Me, (1,7-Dimethyl-4,10-dihydrobenzo[b]pyrazolo[3,4-e][1,4]diazepin-5 (1H)-yl)(phenyl)methanone] | 924 nM |  |  | 4070 ± 1220 nM |  |  | > 10000 nM |  | 235 to 238 °C | > 10000 nM | > 10000 nM | > 10000 nM |
| Cc1ccc(C(=O)N2Cc3cnn(C)c3Nc3ccccc32)cc1C [WJ5103, (3,4-Dimethylphenyl)(1-methyl-4,10-dihydrobenzo[b]pyrazolo[3,4-e][1,4]diazepin-5 (1H)-yl)methanone] | 14 ± 2 nM |  |  | 117 ± 12.4 nM | 5.87% | 147.0 ± 64.3 nM | 109 ± 17.7 nM | 0.37 | 254 to 256 °C (dec.) | > 10000 nM | 346 ± 90.9 nM |  |
| Cc1ccc(CN2Cc3cnn(C)c3Nc3ccccc32)cc1C [WJ05105, 5-(3,4-Dimethylbenzyl)-1-methyl-1,4,5,10-tetrahydrobenzo[b]pyrazolo[3,4-e][1,4]diazepine] | > 10000 nM |  |  | > 10000 nM |  |  | > 10000 nM |  | 171 to 173 °C | > 10000 nM | > 10000 nM | > 10000 nM |
| COc1cccc(C(=O)N2Cc3cnn(C)c3Nc3ccccc32)c1 [WJ0657, (3-Methoxyphenyl)(1-methyl-4,10-dihydrobenzo[b]pyrazolo[3,4-e][1,4]diazepin-5 (1H)-yl)methanone] | 108 ± 23.5 nM |  |  | 842 ± 288 nM | 4.99% | 124.9 ± 16.8 nM | 338 ± 76.5 nM | 0.45 | 267 to 269 °C (dec.) | > 10000 nM | 746 ± 158 nM |  |
| Cn1ncc2c1Nc1ccccc1N(C(=O)c1cccnc1)C2 [WJ0753, (1-Methyl-4,10-dihydrobenzo[b]pyrazolo[3,4-e][1,4]diazepin-5 (1H)-yl)(pyridin-3-yl)methanone] | 353 nM |  |  | > 10000 nM | 9.67% | 242.1 ± 21.7 nM | 3530 ± 634 nM |  | 247 to 249 °C (dec.) | > 10000 nM | > 10000 nM | > 10000 nM |
| COc1ccc(C(=O)N2Cc3cnn(C)c3Nc3ccccc32)cc1 [WJ0661, (4-Methoxyphenyl)(1-methyl-4,10-dihydrobenzo[b]pyrazolo[3,4-e][1,4]diazepin-5 (1H)-yl)methanone] | 24 ± 3.4 nM |  |  | 272 ± 87.6 nM | 8.14% | 203.8 ± 54.8 nM | 197 ± 60.3 nM | 0.43 | 296 to 298 °C (dec.) | > 10000 nM | 462 ± 136 nM |  |
| Cn1ncc2c1Nc1ccccc1N(S(=O)(=O)c1ccc(C(F)(F)F)cc1)C2 [WJ0639, 1-Methyl-5-((4-(trifluoromethyl)phenyl)sulfonyl)-1,4,5,10-tetrahydrobenzo[b]pyrazolo[3,4-e][1,4]diazepine] | > 10000 nM |  |  | > 10000 nM |  |  | > 10000 nM |  | 203 to 205 °C | > 10000 nM | > 10000 nM | > 10000 nM |
| Cc1ccc(S(=O)(=O)N2Cc3cnn(C)c3Nc3ccccc32)cc1 [WJ0641, 1-Methyl-5-tosyl-1,4,5,10-tetrahydrobenzo[b]pyrazolo[3,4-e][1,4]diazepine] | > 10000 nM |  |  | > 10000 nM |  |  | > 10000 nM |  | 184 to 186 °C | > 10000 nM | > 10000 nM | > 10000 nM |
| Cn1ncc2c1Nc1ccccc1N(C(=O)c1cc(O)cc(O)c1)C2 [WJ0623, (3,5-Dihydroxyphenyl)(1-methyl-4,10-dihydrobenzo[b]pyrazolo[3,4-e][1,4]diazepin-5 (1H)-yl)methanone] | 4.6 ± 1.3 nM |  |  | 92.6 ± 10 nM |  |  | > 10000 nM | 8.59 | > 300 °C | > 10000 nM | 205 ± 57.6 nM | 1760 nM |
| Cn1ncc2c1Nc1ccccc1N(C(=O)c1ccccn1)C2 [WJ0759, (1-Methyl-4,10-dihydrobenzo[b]pyrazolo[3,4-e][1,4]diazepin-5 (1H)-yl)(pyridin-2-yl)methanone] | 1120 ± 260 nM |  |  | > 10000 nM |  |  | > 10000 nM |  | 269 to 271 °C (dec.) | > 10000 nM | > 10000 nM | > 10000 nM |
